Results published in ChEMBL document CHEMBL4251589, “4-Quinolone derivatives and their activities against Gram positive pathogens” (2018).
Values after ≈ are worked out from the molar mass of the structure shown.

Key:
Assay type in all cases: functional
Staphylococcus aureus [1] = test: Potency index, ratio of CPFX MIC to compound MIC for Staphylococcus aureus
Staphylococcus aureus [2] = test: Antibacterial activity against Staphylococcus aureus
Staphylococcus aureus [3] = test: Potency index, ratio of GTFX MIC to compound MIC for Staphylococcus aureus
Staphylococcus aureus [4] = test: Potency index, ratio of NRFX MIC to compound MIC for Staphylococcus aureus
Staphylococcus aureus [5] = test: Potency index, ratio of LMFX MIC to compound MIC for Staphylococcus aureus
Staphylococcus aureus [6] = test: Antibacterial activity against Staphylococcus aureus ATCC 6538P after 18 hrs by agar dilution assay
[7] = system: Staphylococcus epidermidis; test: Antibacterial activity against Staphylococcus epidermidis after 18 hrs by agar dilution assay
Staphylococcus aureus [8] = test: Antibacterial activity against vancomycin-resistant Staphylococcus aureus GISA 992
Staphylococcus aureus [9] = test: Antibacterial activity against methicillin-resistant Staphylococcus aureus 494
Staphylococcus aureus [10] = test: Antibacterial activity against Staphylococcus aureus 1199
Staphylococcus aureus [11] = test: Antibacterial activity against Staphylococcus aureus 1199B
Staphylococcus aureus [12] = test: Antibacterial activity against Staphylococcus aureus 1199-3
Staphylococcus aureus [13] = test: Selectivity ratio of MIC for Staphylococcus aureus 209P JC1 to MIC for methicillin-resistant Staphylococcus aureus
[14] = Selectivity ratio of MIC for Micrococcus luteus ATCC 9341 to MIC for methicillin-resistant Staphylococcus aureus
Staphylococcus aureus [15] = test: Potency index, ratio of CPFX MIC to compound MIC for Staphylococcus aureus 1199-3
Staphylococcus aureus [16] = test: Potency index, ratio of CPFX MIC to compound MIC for Staphylococcus aureus 1199
Staphylococcus aureus [17] = test: Potency index, ratio of CPFX MIC to compound MIC for Staphylococcus aureus 1199B
[18] = system: Staphylococcus epidermidis; test: Potency index, ratio of enoxacin MIC to compound MIC for Staphylococcus epidermidis
[19] = system: Staphylococcus epidermidis; test: Potency index, ratio of NRFX MIC to compound MIC for Staphylococcus epidermidis
Staphylococcus aureus [20] = test: Potency index, ratio of enoxacin MIC to compound MIC for Staphylococcus aureus ATCC 6538P
[21] = system: Staphylococcus epidermidis; test: Potency index, ratio of CPFX MIC to compound MIC for Staphylococcus epidermidis
Staphylococcus aureus [22] = test: Potency index, ratio of NRFX MIC to compound MIC for Staphylococcus aureus ATCC 6538P
Staphylococcus aureus [23] = test: Potency index, ratio of CPFX MIC to compound MIC for Staphylococcus aureus ATCC 6538P

For `CCn1cc(C(=O)O)c(=O)c2cc(F)c(N3CCN(CN4C(=O)/C(=N\c5ncc(Cc6cc(OC)c(OC)c(OC)c6)c(N)n5)c5cc(F)ccc54)C(C)C3)c(F)c21` (stereo unspecified), the Ratio (Staphylococcus aureus [1]) was 2 - 4111, the MIC (Staphylococcus aureus [2]; Staphylococcus aureus, read-out: MIC) was 0.0095 µg/mL (≈ 0.0119 µM) and the Ratio (Staphylococcus aureus [3]) was 2 - 4111. The Ratio (Staphylococcus aureus [4]) was 2 - 4111 and the Ratio (Staphylococcus aureus [5]) was 2 - 4111.

`CCn1cc(C(=O)O)c(=O)c2cc(F)c(N3CCNCC3)cc21` [NORFLOXACIN] showed an MIC (Staphylococcus aureus [2]) of 0.02 to 39.06 µg/mL, an MIC (Staphylococcus aureus [6]) of 0.25 to 1 µg/mL (≈ 0.783 to 3.13 µM) and an MIC [7] of 0.25 to 1 µg/mL (≈ 0.783 to 3.13 µM).

Compound `O=C(O)c1cn(C2CC2)c2cc(N3CCNCC3)c(F)cc2c1=O` [CIPROFLOXACIN] has an MIC (Staphylococcus aureus [8]) of 0.125 to 32 µg/mL (≈ 0.377 to 96.6 µM), an MIC (Staphylococcus aureus [2]) of 0.02 to 39.06 µg/mL and an MIC (Staphylococcus aureus [6]) of 0.25 to 1 µg/mL (≈ 0.754 to 3.02 µM). The MIC (Staphylococcus aureus [9]) was 0.125 to 32 µg/mL (≈ 0.377 to 96.6 µM), the MIC (Staphylococcus aureus [10]) was 0.125 to 32 µg/mL (≈ 0.377 to 96.6 µM) and the MIC (Staphylococcus aureus [11]) was 0.125 to 32 µg/mL (≈ 0.377 to 96.6 µM). The MIC [7] was 0.25 to 1 µg/mL (≈ 0.754 to 3.02 µM) and the MIC (Staphylococcus aureus [12]) was 0.125 to 32 µg/mL (≈ 0.377 to 96.6 µM).

In the case of `CCn1cc(C(=O)O)c(=O)c2cc(F)c(N3CCNC(C)C3)c(F)c21` (stereo unspecified) [LOMEFLOXACIN], the MIC (Staphylococcus aureus [2]) is reported as 0.02 to 39.06 µg/mL.

With `C=c1sc2c(C(=O)O)c(=O)c3cc(F)c(-c4ccc(N)cc4)cc3n12` the Ratio (Staphylococcus aureus [13]) was “>=16” and the Ratio [14] was over 16.

Work on `COc1c(N2CCNC(C)C2)c(F)cc2c(=O)c(C(=O)O)cn(C3CC3)c12` (stereo unspecified) [GATIFLOXACIN] yielded an MIC (Staphylococcus aureus [2]) of 0.02 to 39.06 µg/mL.

Work on `CCn1cc(C(=O)O)c(=O)c2cnc(N3CCN(Cc4ccc(CN5CCN(c6cc7c(cc6F)c(=O)c(C(=O)O)cn7C6CC6)CC5)cc4)CC3)nc21` yielded a Ratio (Staphylococcus aureus [15]) of over 4, a Ratio (Staphylococcus aureus [16]) of over 4 and a Ratio (Staphylococcus aureus [17]) of over 4.

For `Cn1c([N+](=O)[O-])cnc1-c1nnc(N2CCN(c3cc4c(cc3F)c(=O)c(C(=O)O)cn4C3CC3)CC2)s1`, the Ratio [18] was 32 - 128, the MIC (Staphylococcus aureus [6]) was 0.008 µg/mL (≈ 0.0148 µM) and the Ratio [19] was 32 - 128. The Ratio (Staphylococcus aureus [20]) was 32 - 128, the Ratio [21] was 32 - 128 and the Ratio (Staphylococcus aureus [22]) was 32 - 128. For the same compound, the Ratio (Staphylococcus aureus [23]) was 32 - 128 and the MIC [7] was 0.008 µg/mL (≈ 0.0148 µM).
